The source of these data is patent US11919965B2, “Methods of treating multiple myeloma with bispecific anti-BCMA x anti-CD3 antibodies” (Regeneron Pharmaceuticals, Inc., priority 2019, dated 2024).

Experiment in all cases: FACS surface BCMA after overnight incubation with anti-BCMA antibodies or DAPT
Common to all, as to format: cell-based, human

Experiment [1] concerns surface BCMA on NCI-H929 cells. The procedure:
(§1) Flow cytometric analysis was utilized to determine the impact of overnight incubation of multiple myeloma cell lines with anti-BCMA antibodies on the level of surface BCMA. […] After 18 hours, wells were washed with cold FACS wash (PBS+1% filtered FBS) and resuspended in 667 nM of the same anti-BCMA antibody in cold stain buffer (Miltenyi 130-091-221) for 30 minutes on ice. After incubation, the cells were washed twice with cold FACS wash (PBS+1% filtered FBS) and bound antibody was detected by incubating with the appropriate anti-human secondary antibody (anti-hlgG or anti-HIS) on ice for an additional 30-45 minutes. After incubation, cells were washed, re-suspended in 200 μL cold PBS containing 1% filtered FBS and analyzed by flow cytometry on a BD FACS Canto II. Fold increase in staining was calculated by dividing the MFI of stained cells previously incubated overnight in BCMA abs or DAPT by the MFI of stained cells that were incubated overnight in media only.

Experiment [2] concerns surface BCMA on MM1S cells. The note with it: stained with the anti-BCMA antibody. As to the method:
as §1

Experiment [3] has as its system surface BCMA on Molp8 cells. As to the method: as §1
Experiment [4] relates to surface BCMA on U266 cells. The procedure: as §1

Consider `C[C@H](NC(=O)Cc1cc(F)cc(F)c1)C(=O)N[C@H](C(=O)OC(C)(C)C)c1ccccc1` [DAPT], for which the “fold increase of BCMA levels after overnight DAPT, range over detecting antibodies” value is 2.3-4 fold in experiment [1], 2.4-8.6 fold in experiment [3] and 5.3-9.0 fold in experiment [4]. Also, in experiment [2], the “MFI fold change over cells incubated in media only, Average” value was found to be 11.9 fold.
